Results from the supplement of paper PMC5752671.
Counter-ions that a name gives are not always drawn.

Columns and labels:
Experiment in all cases: IC50 (cell viability) (log10 M)
Details in all cases: 4 days
EOL-1 = system: EOL-1
How it was run: (§1)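 The IC50 entries come from fitted dose-response curves. Each value is the concentration in log10 M where a fitted four-parameter curve reaches 50% viability, and the highest tested concentration is entered when that level is not reached. Fourteen leukemia cell lines on extracellular-matrix-coated 384-well plates received drugs in duplicate at eight concentrations within 10^–12–10^–4 M, and viability was read with CellTiter-Glo after 4 days.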

KASUMI1 = system: KASUMI1
How it was run: as §1

KG1 = system: KG1
How it was run: as §1

MOLM/13 = system: MOLM/13
How it was run: as §1

MV4.11 = system: MV4.11
How it was run: as §1

NB4 = system: NB4
How it was run: as §1

OCI-AML2 = system: OCI-AML2
How it was run: as §1

SKM1 = system: SKM1
How it was run: as §1

THP-1 = system: THP-1
How it was run: as §1

U937 = system: U937
How it was run: as §1

| Structure (SMILES) | IC50 (log10 M) (EOL-1) | IC50 (log10 M) (KASUMI1) | IC50 (log10 M) (KG1) | IC50 (log10 M) (MOLM/13) | IC50 (log10 M) (MV4.11) | IC50 (log10 M) (NB4) | IC50 (log10 M) (OCI-AML2) | IC50 (log10 M) (SKM1) | IC50 (log10 M) (THP-1) | IC50 (log10 M) (U937) |
| --- | --- | --- | --- | --- | --- | --- | --- | --- | --- | --- |
| NC(=O)NO [Hydroxyurea] | > -5 | > -5 | > -5 | > -5 | > -5 | > -5 | > -5 | > -5 | > -5 | > -5 |
| N[C@@H](Cc1ccc(N(CCCl)CCCl)cc1)C(=O)O [Melphalan] | -6.64 | -5.38 | -5.44 | -6.22 | -6.72 | -6.08 | -6.57 | -5.41 | -5.55 | -5.99 |
| Nc1ncn([C@H]2C[C@H](O)[C@@H](CO)O2)c(=O)n1 [Decitabine] | < -8.34 | -5.3 | -6.39 | < -8.34 | -5.06 | -8.3 | -7.26 | -5.53 | -5.82 | -6.97 |
| Nc1cc(C(F)(F)F)c(-c2cc(N3CCOCC3)nc(N3CCOCC3)n2)cn1 [BKM-120] | -6.36 | -5.95 | -5.83 | -5.82 | -5.78 | -5.9 | -5.74 | -5.8 | -5.85 | -6.45 |
| N#CC[C@H](C1CCCC1)n1cc(-c2ncnc3[nH]ccc23)cn1 | -5.11 | > -5 | -5.38 | > -5 | -5.01 | > -5 | > -5 | > -5 | > -5 | -5.57 |
| COc1cc(N2CCC(N3CCN(C)CC3)CC2)ccc1Nc1ncc(Cl)c(Nc2ccccc2S(=O)(=O)C(C)C)n1 [NVP-TAE-684] | -5.97 | -5.7 | -5.7 | -5.8 | -5.83 | -5.25 | -5.56 | -5.47 | > -5 | > -5 |
| CS(=O)(=O)CCNCc1ccc(-c2ccc3ncnc(Nc4ccc(OCc5cccc(F)c5)c(Cl)c4)c3c2)o1 [Lapatinib] | -5.04 | -5.15 | -5.01 | -5.41 | -5.4 | -5.37 | -5.37 | -5.07 | -5.01 | -5.45 |
| O=C(c1cc(Cc2n[nH]c(=O)c3ccccc23)ccc1F)N1CCN(C(=O)C2CC2)CC1 [Olaparib] | -5.64 | > -5 | > -5 | -5.32 | -5.65 | -5.1 | -5.5 | > -5 | -5.34 | > -5 |
| COc1cccc2c1C(=O)c1c(O)c3c(c(O)c1C2=O)C[C@@](O)(C(C)=O)C[C@@H]3O[C@H]1C[C@H](N)[C@H](O)[C@H](C)O1 [Daunorubicin HCl] | -8.26 | -6.96 | -6.76 | -7.09 | -8.28 | -7.23 | -7.03 | -7.2 | -7 | -7 |
| N.N.[Cl][Pt][Cl] [Cisplatin] | > -5 | > -5 | > -5 | > -5 | > -5 | > -5 | > -5 | > -5 | > -5 | > -5 |
| CO[C@@]12[C@H](COC(N)=O)C3=C(C(=O)C(C)=C(N)C3=O)N1C[C@@H]1N[C@@H]12 [Mitomycin C] | -8.21 | -6.29 | -6.54 | -7.55 | < -8.48 | -7.79 | < -8.48 | -7.15 | -7.5 | -7.18 |
| CN1CC[C@H](c2c(O)cc(O)c3c(=O)cc(-c4ccccc4Cl)oc23)[C@H](O)C1 [Flavopiridol] | -7.2 | -7.17 | – | -7.27 | -7.35 | -6.96 | -7.46 | – | -7.14 | -7.41 |
| CS(=O)(=O)OCCCCOS(C)(=O)=O [Busulfan] | -5.23 | > -5 | > -5 | > -5 | -5.24 | > -5 | > -5 | > -5 | > -5 | > -5 |
| Nc1nc(Cl)nc2c1ncn2[C@@H]1O[C@H](CO)[C@@H](O)[C@@H]1F [Clofarabine] | -7.52 | -6.93 | -6.93 | -6.86 | -6.57 | -6.74 | -7.05 | -6.7 | -6.56 | -7.66 |
| CC(C)C[C@H](NC(=O)[C@H](Cc1ccccc1)NC(=O)c1cnccn1)B(O)O [Bortezomib] | -8.29 | -8.06 | -8.25 | -8.37 | -8.1 | -8.38 | -8.06 | -8.6 | -8.06 | -8.32 |
| Nc1nc(Cl)nc2c1ncn2[C@H]1C[C@H](O)[C@@H](CO)O1 [Cladribine] | < -8.48 | -6.94 | -6.79 | -7.74 | < -8.48 | -7.52 | < -8.48 | -6.97 | -6.82 | -8.47 |

| Structure (SMILES) | IC50 (log10 M) (EOL-1) | IC50 (log10 M) (KASUMI1) | IC50 (log10 M) (KG1) | IC50 (log10 M) (MOLM/13) | IC50 (log10 M) (MV4.11) | IC50 (log10 M) (NB4) | IC50 (log10 M) (OCI-AML2) | IC50 (log10 M) (SKM1) | IC50 (log10 M) (THP-1) | IC50 (log10 M) (U937) |
| --- | --- | --- | --- | --- | --- | --- | --- | --- | --- | --- |
| NC(=O)[C@@H](CCC(F)(F)F)N(Cc1ccc(-c2ncon2)cc1F)S(=O)(=O)c1ccc(Cl)cc1 | > -5 | > -5 | > -5 | > -5 | > -5 | > -5 | > -5 | > -5 | > -5 | > -5 |
| CSCC[C@H](NC(=O)c1ccc(NC[C@@H](N)CS)cc1-c1ccccc1)C(=O)O [FTI-276] | > -5 | > -5 | > -5 | > -5 | > -5 | > -5 | > -5 | > -5 | > -5 | > -5 |
| NC(=O)c1ccc2nc(-c3ccc(Oc4ccc(Cl)cc4)cc3)[nH]c2c1 [BML 277] | -5.36 | > -5 | > -5 | > -5 | > -5 | > -5 | > -5 | > -5 | > -5 | > -5 |
| CN(C)CC[C@H](CSc1ccccc1)Nc1ccc(S(=O)(=O)NC(=O)c2ccc(N3CCN(Cc4ccccc4-c4ccc(Cl)cc4)CC3)cc2)cc1[N+](=O)[O-] [ABT-737] | -7.89 | -7.03 | -6.4 | -7.19 | -7.76 | > -6 | -6.99 | -6.03 | -6.33 | -6.16 |
| Nc1ccccc1NC(=O)c1ccc(CNC(=O)OCc2cccnc2)cc1 [MS-275] | -7.34 | -6.78 | -6.27 | -6.82 | -6.86 | -6.85 | -6.78 | -6.84 | -6.13 | -6.6 |
| Cc1c(C(=O)Nc2ccc(N3C[C@@H](C)O[C@@H](C)C3)nc2)cccc1-c1ccc(OC(F)(F)F)cc1 [NVP-LDE-225] | -5.16 | > -5 | > -5 | > -5 | > -5 | > -5 | > -5 | > -5 | > -5 | > -5 |
| CN1CCC(COc2cnc(-c3cccc(Cn4nc(-c5cccc(C#N)c5)ccc4=O)c3)nc2)CC1 | > -5 | > -5 | > -5 | > -5 | > -5 | > -5 | > -5 | > -5 | > -5 | > -5 |
| Nc1cccc2c1CN(C1CCC(=O)NC1=O)C2=O (stereo unspecified) [Lenalidomide] | > -5 | > -5 | > -5 | > -5 | > -5 | > -5 | > -5 | > -5 | > -5 | > -5 |
| Cc1cn(-c2cc(NC(=O)c3ccc(C)c(Nc4nccc(-c5cccnc5)n4)c3)cc(C(F)(F)F)c2)cn1 [Nilotinib] | -7.48 | -5.59 | > -5 | -5.25 | -5.28 | > -5 | -5.44 | -5.19 | -5.09 | -5.57 |
| COc1cc2nccc(Oc3ccc(NC(=O)NC4CC4)c(Cl)c3)c2cc1C(N)=O [E7080] | -7.74 | -5.24 | – | -5.98 | -5.91 | > -5 | > -5 | > -5 | > -5 | > -5 |
| COc1cc([C@@H]2c3cc4c(cc3[C@@H](O[C@@H]3O[C@@H]5CO[C@@H](C)O[C@H]5[C@H](O)[C@H]3O)[C@H]3COC(=O)[C@H]23)OCO4)cc(OC)c1O [Etoposide] | -8.33 | -5.78 | -5.49 | -7.76 | -8.2 | -7.71 | – | -7.22 | -5.97 | -7.62 |
| COC1=CC(c2cc3ccccc3[nH]2)=N/C1=C\c1[nH]c(C)cc1C [Obatoclax] | -7.65 | -8.02 | -7.72 | -7.47 | -7.27 | -7.77 | -7.77 | -6.64 | – | -7.45 |
| CC(C)C[C@@H](C=O)NC(=O)[C@H](CC(C)C)NC(=O)[C@H](CC(C)C)NC(=O)OCc1ccccc1 [MG132] | -7.15 | -6.3 | -6.61 | -6.97 | -7.18 | -7.22 | – | -6.97 | -6.33 | -6.99 |
| CC(=O)Nc1cccc(-n2c(=O)n(C3CC3)c(=O)c3c(Nc4ccc(I)cc4F)n(C)c(=O)c(C)c32)c1 | – | -7.17 | -7.87 | -5.77 | -6.67 | -7.5 | < -8.34 | < -8.34 | > -5 | > -5 |
| NC1(c2ccc(-c3nc4ccn5c(=O)[nH]nc5c4cc3-c3ccccc3)cc2)CCC1 [MK2206] | -6.28 | -5.83 | – | -5.62 | -5.66 | -5.23 | -5.45 | -5.76 | -5.31 | -7.93 |
| O=C1c2c(O)ccc(O)c2C(=O)c2c(NCCNCCO)ccc(NCCNCCO)c21 [Mitoxantrone] | < -9.48 | – | -7.61 | -9.18 | < -9.48 | -9.01 | -9.21 | -8.57 | -8.04 | -9.09 |
